From PMC5428509, “Irreversible inhibition of BTK kinase by a novel highly selective inhibitor CHMFL-BTK-11 suppresses inflammatory response in rheumatoid arthritis model” (Scientific Reports, 2017)

Key:
Assay in all cases: biochemical
Design in all cases: KinomeScan competition binding panel (DiscoveRx), percent of control at 1 uM
Settings in all cases: read-out: Percent Control
[1] = target: T1, ABL1(T315I)-phosphorylated (Homo sapiens, UniProt P00519, T315I)
T1 construct: phosphorylated
Outline: (§1)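 KinomeScan technology used to profile binding across a panel of 456 kinases and mutants.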

[2] = target: AKT3 (Homo sapiens, UniProt Q9Y243)
Outline: as §1

[3] = target: BRSK1 (Homo sapiens, UniProt Q8TDC3)
Outline: as §1

[4] = target: CDK8 (Homo sapiens, UniProt P49336)
Outline: as §1

[5] = target: CSNK1D (Homo sapiens, UniProt P48730)
Outline: as §1

[6] = target: EGFR(G719C) (Homo sapiens, UniProt P00533, G719C)
Outline: as §1

[7] = target: EGFR(G719S) (Homo sapiens, UniProt P00533, G719S)
Outline: as §1

[8] = target: INSRR (Homo sapiens, UniProt P14616)
Outline: as §1

[9] = target: T2, JNK2 (Homo sapiens, UniProt P45984)
T2 construct: gene MAPK9
T2 sequence (P45984 whole entry): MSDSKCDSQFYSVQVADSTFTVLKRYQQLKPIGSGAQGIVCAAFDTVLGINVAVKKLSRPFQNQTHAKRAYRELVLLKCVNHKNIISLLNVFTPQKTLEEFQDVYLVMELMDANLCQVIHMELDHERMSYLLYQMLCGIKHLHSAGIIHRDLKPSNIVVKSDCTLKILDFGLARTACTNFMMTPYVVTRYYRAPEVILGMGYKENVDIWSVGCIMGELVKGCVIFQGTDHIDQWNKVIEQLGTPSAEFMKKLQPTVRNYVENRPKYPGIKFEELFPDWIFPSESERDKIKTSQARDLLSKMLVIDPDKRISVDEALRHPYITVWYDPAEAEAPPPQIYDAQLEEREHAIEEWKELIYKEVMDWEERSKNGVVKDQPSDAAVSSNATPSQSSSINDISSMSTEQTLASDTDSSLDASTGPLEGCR
Outline: as §1

[10] = target: MAK (Homo sapiens, UniProt P20794)
Sequence of MAK (P20794 whole entry): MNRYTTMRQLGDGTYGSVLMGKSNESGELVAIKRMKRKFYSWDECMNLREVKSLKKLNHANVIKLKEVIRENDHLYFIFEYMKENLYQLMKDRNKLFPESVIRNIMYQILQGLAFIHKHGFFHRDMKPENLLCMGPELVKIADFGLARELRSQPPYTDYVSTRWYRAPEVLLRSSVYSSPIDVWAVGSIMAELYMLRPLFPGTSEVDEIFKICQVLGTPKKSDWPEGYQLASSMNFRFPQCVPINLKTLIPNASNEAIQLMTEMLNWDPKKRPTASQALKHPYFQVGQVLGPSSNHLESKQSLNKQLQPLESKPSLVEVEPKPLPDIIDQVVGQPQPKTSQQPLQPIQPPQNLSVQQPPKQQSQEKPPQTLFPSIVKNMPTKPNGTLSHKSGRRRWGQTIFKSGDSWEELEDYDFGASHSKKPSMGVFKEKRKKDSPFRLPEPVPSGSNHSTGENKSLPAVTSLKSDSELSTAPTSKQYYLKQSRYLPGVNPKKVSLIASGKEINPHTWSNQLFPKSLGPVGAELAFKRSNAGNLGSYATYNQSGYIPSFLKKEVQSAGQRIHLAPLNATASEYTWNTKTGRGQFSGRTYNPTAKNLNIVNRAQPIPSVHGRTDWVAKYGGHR
Outline: as §1

[11] = target: MARK2 (Homo sapiens, UniProt Q7KZI7)
Outline: as §1

[12] = target: T3, MEK1 (Homo sapiens, UniProt Q02750)
T3 construct: gene MAP2K1
Outline: as §1

[13] = target: MET(M1250T) (Homo sapiens, UniProt P08581, M1250T)
Sequence of MET(M1250T) (P08581 whole entry M1250T): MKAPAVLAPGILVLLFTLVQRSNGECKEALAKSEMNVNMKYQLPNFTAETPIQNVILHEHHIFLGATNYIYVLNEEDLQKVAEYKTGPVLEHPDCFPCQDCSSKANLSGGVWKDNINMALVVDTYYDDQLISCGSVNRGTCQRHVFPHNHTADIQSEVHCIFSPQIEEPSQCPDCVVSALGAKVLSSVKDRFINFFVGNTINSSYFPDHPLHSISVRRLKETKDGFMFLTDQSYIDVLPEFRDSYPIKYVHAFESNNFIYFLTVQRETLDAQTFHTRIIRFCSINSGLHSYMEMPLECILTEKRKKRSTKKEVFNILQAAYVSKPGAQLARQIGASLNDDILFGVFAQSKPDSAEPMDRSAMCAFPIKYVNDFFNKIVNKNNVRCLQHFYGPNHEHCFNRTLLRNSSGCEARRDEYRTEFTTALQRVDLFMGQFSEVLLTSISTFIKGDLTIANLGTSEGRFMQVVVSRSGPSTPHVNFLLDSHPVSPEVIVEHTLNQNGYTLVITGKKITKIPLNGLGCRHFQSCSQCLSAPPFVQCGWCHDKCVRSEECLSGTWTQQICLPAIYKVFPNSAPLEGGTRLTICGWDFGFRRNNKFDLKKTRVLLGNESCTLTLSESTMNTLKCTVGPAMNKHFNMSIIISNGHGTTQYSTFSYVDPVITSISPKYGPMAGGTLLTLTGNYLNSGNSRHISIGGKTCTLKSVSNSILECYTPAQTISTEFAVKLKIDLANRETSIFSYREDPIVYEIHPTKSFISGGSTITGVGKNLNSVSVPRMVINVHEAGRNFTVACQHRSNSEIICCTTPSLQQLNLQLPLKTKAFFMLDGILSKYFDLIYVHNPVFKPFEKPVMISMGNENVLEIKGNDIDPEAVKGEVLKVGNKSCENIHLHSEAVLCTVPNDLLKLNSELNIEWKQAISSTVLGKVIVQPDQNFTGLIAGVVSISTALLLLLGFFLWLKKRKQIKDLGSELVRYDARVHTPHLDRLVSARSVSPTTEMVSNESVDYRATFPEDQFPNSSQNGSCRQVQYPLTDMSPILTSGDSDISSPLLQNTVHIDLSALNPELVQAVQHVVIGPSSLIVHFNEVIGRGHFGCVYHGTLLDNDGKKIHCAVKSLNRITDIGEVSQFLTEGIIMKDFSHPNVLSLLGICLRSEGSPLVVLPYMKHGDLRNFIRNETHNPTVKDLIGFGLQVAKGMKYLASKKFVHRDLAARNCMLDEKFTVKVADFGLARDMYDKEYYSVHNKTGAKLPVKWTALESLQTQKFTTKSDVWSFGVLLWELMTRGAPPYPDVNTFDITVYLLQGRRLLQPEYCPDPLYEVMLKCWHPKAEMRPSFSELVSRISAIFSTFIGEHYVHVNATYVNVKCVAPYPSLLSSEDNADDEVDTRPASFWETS
Outline: as §1

[14] = target: NEK11 (Homo sapiens, UniProt Q8NG66)
Outline: as §1

[15] = target: NEK5 (Homo sapiens, UniProt Q6P3R8)
Outline: as §1

[16] = target: PDGFRB (Homo sapiens, UniProt P09619)
Outline: as §1

[17] = target: PIK3CA(H1047L) (Homo sapiens, UniProt P42336, H1047L)
Sequence of PIK3CA(H1047L) (P42336 whole entry H1047L): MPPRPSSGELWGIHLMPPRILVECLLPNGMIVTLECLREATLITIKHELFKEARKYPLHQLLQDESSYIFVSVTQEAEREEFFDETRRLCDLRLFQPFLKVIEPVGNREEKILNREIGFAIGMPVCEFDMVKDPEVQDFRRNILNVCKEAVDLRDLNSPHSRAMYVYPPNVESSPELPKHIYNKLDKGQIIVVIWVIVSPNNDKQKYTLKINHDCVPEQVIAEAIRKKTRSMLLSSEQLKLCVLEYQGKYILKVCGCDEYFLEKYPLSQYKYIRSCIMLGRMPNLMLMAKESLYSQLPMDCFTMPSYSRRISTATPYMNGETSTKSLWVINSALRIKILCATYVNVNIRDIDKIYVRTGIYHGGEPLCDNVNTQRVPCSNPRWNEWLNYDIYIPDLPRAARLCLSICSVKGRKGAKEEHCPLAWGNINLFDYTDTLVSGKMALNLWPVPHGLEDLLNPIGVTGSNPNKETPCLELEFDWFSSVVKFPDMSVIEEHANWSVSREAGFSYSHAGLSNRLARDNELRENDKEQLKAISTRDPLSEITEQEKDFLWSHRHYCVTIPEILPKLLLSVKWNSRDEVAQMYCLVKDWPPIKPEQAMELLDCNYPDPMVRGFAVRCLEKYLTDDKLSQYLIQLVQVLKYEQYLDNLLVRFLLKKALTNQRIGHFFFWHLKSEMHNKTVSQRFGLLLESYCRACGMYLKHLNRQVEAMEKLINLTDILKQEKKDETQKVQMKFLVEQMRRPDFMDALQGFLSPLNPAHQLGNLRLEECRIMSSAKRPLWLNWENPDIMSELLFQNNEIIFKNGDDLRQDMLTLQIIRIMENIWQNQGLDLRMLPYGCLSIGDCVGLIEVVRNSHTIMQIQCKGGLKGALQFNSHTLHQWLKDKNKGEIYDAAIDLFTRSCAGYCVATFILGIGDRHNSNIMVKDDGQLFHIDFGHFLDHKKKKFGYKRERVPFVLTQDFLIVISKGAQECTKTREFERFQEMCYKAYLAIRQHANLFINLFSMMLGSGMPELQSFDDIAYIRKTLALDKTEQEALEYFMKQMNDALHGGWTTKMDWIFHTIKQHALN
Outline: as §1

[18] = target: T4, PIP5K2C (Homo sapiens, UniProt Q8TBX8)
T4 construct: gene PIP4K2C
T4 sequence (Q8TBX8 whole entry): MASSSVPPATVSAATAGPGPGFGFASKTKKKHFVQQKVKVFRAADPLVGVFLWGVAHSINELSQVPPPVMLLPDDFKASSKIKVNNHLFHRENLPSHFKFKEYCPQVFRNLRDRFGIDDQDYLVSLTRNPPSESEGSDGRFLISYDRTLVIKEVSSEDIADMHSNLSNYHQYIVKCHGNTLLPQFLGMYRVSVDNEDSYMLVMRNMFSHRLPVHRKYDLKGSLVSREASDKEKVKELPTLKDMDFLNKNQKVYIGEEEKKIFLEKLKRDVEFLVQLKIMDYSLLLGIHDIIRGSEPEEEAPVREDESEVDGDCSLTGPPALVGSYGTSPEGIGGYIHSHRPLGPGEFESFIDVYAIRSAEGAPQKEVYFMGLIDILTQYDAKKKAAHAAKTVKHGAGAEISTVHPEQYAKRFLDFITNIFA
Outline: as §1

[19] = target: PRKD3 (Homo sapiens, UniProt O94806)
Sequence of PRKD3 (O94806 whole entry): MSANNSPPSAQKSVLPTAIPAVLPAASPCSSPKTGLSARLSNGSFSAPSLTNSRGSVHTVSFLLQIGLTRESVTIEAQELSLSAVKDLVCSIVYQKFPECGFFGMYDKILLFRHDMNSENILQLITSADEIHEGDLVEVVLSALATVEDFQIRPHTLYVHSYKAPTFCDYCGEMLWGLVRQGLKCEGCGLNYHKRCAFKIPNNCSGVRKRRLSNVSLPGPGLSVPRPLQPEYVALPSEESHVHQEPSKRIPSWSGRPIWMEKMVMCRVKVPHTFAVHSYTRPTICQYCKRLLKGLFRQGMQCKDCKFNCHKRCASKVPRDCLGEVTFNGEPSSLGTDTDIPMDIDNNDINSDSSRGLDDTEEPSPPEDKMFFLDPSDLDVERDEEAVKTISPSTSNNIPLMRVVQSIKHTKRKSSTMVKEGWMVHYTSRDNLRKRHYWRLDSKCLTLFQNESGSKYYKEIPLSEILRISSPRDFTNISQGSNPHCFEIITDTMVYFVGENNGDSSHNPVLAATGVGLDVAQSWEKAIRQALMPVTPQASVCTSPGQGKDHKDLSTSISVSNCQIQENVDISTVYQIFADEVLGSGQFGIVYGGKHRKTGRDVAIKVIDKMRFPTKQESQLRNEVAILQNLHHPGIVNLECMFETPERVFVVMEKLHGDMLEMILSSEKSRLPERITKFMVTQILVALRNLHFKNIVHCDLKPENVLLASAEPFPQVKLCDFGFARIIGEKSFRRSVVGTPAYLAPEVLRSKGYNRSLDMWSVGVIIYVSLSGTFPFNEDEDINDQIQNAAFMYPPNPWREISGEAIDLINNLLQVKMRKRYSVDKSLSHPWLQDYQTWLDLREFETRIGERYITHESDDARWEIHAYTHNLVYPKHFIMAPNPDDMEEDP
Outline: as §1

[20] = target: RIPK4 (Homo sapiens, UniProt P57078)
Outline: as §1

[21] = target: T5, RPS6KA4(Kin.Dom.1-N-terminal) (Homo sapiens, UniProt O75676)
T5 construct: Kin.Dom.1-N-terminal
Outline: as §1

[22] = target: T6, RPS6KA5(Kin.Dom.2-C-terminal) (Homo sapiens, UniProt O75582)
T6 construct: Kin.Dom.2-C-terminal
Outline: as §1

[23] = target: T7, S6K1 (Homo sapiens, UniProt P23443)
T7 construct: gene RPS6KB1
Outline: as §1

[24] = target: STK39 (Homo sapiens, UniProt Q9UEW8)
Outline: as §1

With `C=CC(=O)Nc1cc(-n2c(=O)ccc3cnc4ccc(-n5cccn5)cc4c32)ccc1C` [CHMFL-BTK-11] the remaining binding at 1 µM [1] was 100%, the remaining binding at 1 µM [2] was 100% and the remaining binding at 1 µM [3] was 100%. The remaining binding at 1 µM [4] was 91%, the remaining binding at 1 µM [5] was 100% and the remaining binding at 1 µM [6] was 97%. It also gave a remaining binding at 1 µM [7] of 88%, a remaining binding at 1 µM [8] of 100% and a remaining binding at 1 µM [9] of 100%. For the same compound, the remaining binding at 1 µM [10] was 100%, the remaining binding at 1 µM [11] was 92% and the remaining binding at 1 µM [12] was 100%. For the same compound, the remaining binding at 1 µM [13] was 100%, the remaining binding at 1 µM [14] was 96% and the remaining binding at 1 µM [15] was 73%. It also gave a remaining binding at 1 µM [16] of 100%, a remaining binding at 1 µM [17] of 85% and a remaining binding at 1 µM [18] of 90%. It also gave a remaining binding at 1 µM [19] of 100%, a remaining binding at 1 µM [20] of 100% and a remaining binding at 1 µM [21] of 100%. For the same compound, the remaining binding at 1 µM [22] was 89%, the remaining binding at 1 µM [23] was 100% and the remaining binding at 1 µM [24] was 72%.
